Data published in the supplement of paper PMC11451515.

Test system: P12-Ichikawa
Assay: cell viability relative to DMSO control; higher = less cytotoxic
Settings: 48 h
How it was run: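 Three leukemia lines were tested: NOMO1 and SEM at 500 cells/well and P12-Ichikawa at 1000 cells/well. Each was adapted for at least four passages in each medium and seeded in 5 μl in 1536-well plates, and library compounds in DMSO were pin-dosed from 47 μM to 0.79 nM in 11 threefold steps. After 48 h at 37°C, CellTiter-Glo One luminescence was read. Viability is a percentage relative to DMSO wells on each plate, with cell-free wells as background.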

[1] = HPLM + 10% dialyzed FBS, 0.000781 µM
[2] = HPLM + 10% dialyzed FBS, 0.00234 µM
[3] = HPLM + 10% dialyzed FBS, 0.00702 µM
[4] = HPLM + 10% dialyzed FBS, 0.0211 µM
[5] = HPLM + 10% dialyzed FBS, 0.0632 µM
[6] = HPLM + 10% dialyzed FBS, 0.19 µM
[7] = HPLM + 10% dialyzed FBS, 0.569 µM
[8] = HPLM + 10% dialyzed FBS, 1.71 µM
[9] = HPLM + 10% dialyzed FBS, 5.12 µM
[10] = HPLM + 10% dialyzed FBS, 15.4 µM
[11] = HPLM + 10% dialyzed FBS, 46.1 µM
[12] = RPMI 5 mM glucose + 10% FBS, 0.000781 µM
[13] = RPMI 5 mM glucose + 10% FBS, 0.00234 µM
[14] = RPMI 5 mM glucose + 10% FBS, 0.00702 µM
[15] = RPMI 5 mM glucose + 10% FBS, 0.0211 µM
[16] = RPMI 5 mM glucose + 10% FBS, 0.0632 µM
[17] = RPMI 5 mM glucose + 10% FBS, 0.19 µM
[18] = RPMI 5 mM glucose + 10% FBS, 0.569 µM
[19] = RPMI 5 mM glucose + 10% FBS, 1.71 µM
[20] = RPMI 5 mM glucose + 10% FBS, 5.12 µM
[21] = RPMI 5 mM glucose + 10% FBS, 15.4 µM
[22] = RPMI 5 mM glucose + 10% FBS, 46.1 µM
[23] = RPMI 5 mM glucose + 10% dialyzed FBS, 0.000781 µM
[24] = RPMI 5 mM glucose + 10% dialyzed FBS, 0.00234 µM
[25] = RPMI 5 mM glucose + 10% dialyzed FBS, 0.00702 µM
[26] = RPMI 5 mM glucose + 10% dialyzed FBS, 0.0211 µM
[27] = RPMI 5 mM glucose + 10% dialyzed FBS, 0.0632 µM
[28] = RPMI 5 mM glucose + 10% dialyzed FBS, 0.19 µM
[29] = RPMI 5 mM glucose + 10% dialyzed FBS, 0.569 µM
[30] = RPMI 5 mM glucose + 10% dialyzed FBS, 1.71 µM
[31] = RPMI 5 mM glucose + 10% dialyzed FBS, 5.12 µM
[32] = RPMI 5 mM glucose + 10% dialyzed FBS, 15.4 µM
[33] = RPMI 5 mM glucose + 10% dialyzed FBS, 46.1 µM

SMILES	cell viability [1] [%]	cell viability [2] [%]	cell viability [3] [%]	cell viability [4] [%]	cell viability [5] [%]	cell viability [6] [%]	cell viability [7] [%]	cell viability [8] [%]	cell viability [9] [%]	cell viability [10] [%]	cell viability [11] [%]	cell viability [12] [%]	cell viability [13] [%]	cell viability [14] [%]	cell viability [15] [%]	cell viability [16] [%]	cell viability [17] [%]	cell viability [18] [%]	cell viability [19] [%]	cell viability [20] [%]	cell viability [21] [%]	cell viability [22] [%]	cell viability [23] [%]	cell viability [24] [%]	cell viability [25] [%]	cell viability [26] [%]	cell viability [27] [%]	cell viability [28] [%]	cell viability [29] [%]	cell viability [30] [%]	cell viability [31] [%]	cell viability [32] [%]	cell viability [33] [%]
C1CCC(C(CC2CCCCN2)C2CCCCC2)CC1 (configuration not stated)	115	117	124	119	128	124	129	127	119	123	88.3	118	123	124	115	128	134	126	119	131	106	54.2	109	127	107	122	123	124	122	126	117	115	67.7
CC[C@H]1/C=C\C=C/C[C@@H](C)[C@H](O)[C@@](C)(O)C(=O)[C@@H](C)[C@H](O)[C@@H](C)C(=O)[C@@H](C)[C@H](O)[C@@H](C)/C=C/C(=O)O[C@@H]2[C@H](C)[C@H](CC1)O[C@]1(CC[C@H](C)[C@H](C[C@@H](C)O)O1)[C@H]2C	91.4	102	98.8	102	89.5	107	109	67.4	57.1	41.4	4.23	90.5	96.7	75	110	94.1	109	108	64.4	58.9	53.7	5.47	84.9	102	92.7	89.9	101	99.8	92.2	59.1	45.9	41.8	5.21
C\C1=C\C(=O)C2=C(C=CC=C2)C1=O	108	104	118	125	128	120	127	125	122	116	123	107	119	109	130	125	118	125	135	134	139	131	119	122	121	130	127	137	128	118	120	131	128
CCCCNc1cc(C(=O)O)cc([S+](N)(=O)[O-])c1Oc1ccccc1	117	116	118	116	124	120	121	118	117	128	127	–	–	–	–	–	–	–	–	–	–	–	111	119	115	115	118	117	116	113	124	124	116
CC(C)Oc1cc(Nc2nc(N[C@@H](C)c3ccc(F)cn3)ncc2Cl)n[nH]1	111	111	116	112	110	115	106	13.3	14.7	29.6	41.1	104	92.9	105	106	108	110	104	15.2	17	27.5	40	113	113	108	114	115	116	105	27.9	30.5	46.6	55.5
CC(=O)N1CCN(c2ccc(OC[C@H]3CO[C@](Cn4ccnc4)(c4ccc(Cl)cc4Cl)O3)cc2)CC1	118	120	118	112	108	121	114	105	104	94	63.2	–	–	–	–	–	–	–	–	–	–	–	109	107	110	107	113	106	101	101	94	96.7	68.2
O=C(CO)N1CCC(c2n[nH]c(-c3ccc(Cl)cc3)c2-c2ccncn2)CC1	119	104	113	112	113	109	105	100	97.7	55.7	68.4	117	112	118	122	114	113	114	110	87.8	24	58.5	122	116	114	116	117	114	113	101	97.7	21.7	55.4
CC\1=C(C(=O)N(\C=C1)C2=CC=C(C=C2)C3=NC=CO3)/C4=CC5=CN=C(N)N=C5C=C4	105	114	111	108	115	111	109	117	105	110	91.3	106	112	108	102	112	105	109	102	106	98.6	80.2	102	103	111	112	117	109	111	110	94.2	105	79.6
